One test deals with Enterococcus faecalis. The experiment in a line: Antibacterial activity against vancomycin-resistant Enterococcus faecalis 1528 R10 assessed as zone of inhibition at 50 ug/disc after 24 hrs by agar diffusion assay. The class given is functional. The settings on record: 1528 R10, 24 h, read-out: IZ.
The subject of test [1] is Staphylococcus aureus. As to the kind of experiment: Antibacterial activity against Staphylococcus aureus 511 B3 assessed as zone of inhibition at 50 ug/disc after 24 hrs by agar diffusion assay. The format is functional. To be noted: 511 B3, 24 h, read-out: IZ.
Another test has as its system Bacillus subtilis. As to the kind of experiment: Antibacterial activity against Bacillus subtilis 6633 B1 assessed as zone of inhibition at 50 ug/disc after 24 hrs by agar diffusion assay. The class given is functional. The settings on record: 6633 B1, 24 h, read-out: IZ.
The next test deals with Aspergillus terreus. The experiment in a line: Antifungal activity against amphotericin-resistant Aspergillus terreus DSM 826 assessed as zone of inhibition at 50 ug/disc after 24 hrs by agar diffusion assay. The class given is functional. The settings on record: DSM 826, 24 h, read-out: IZ. In general terms: A growth-free zone around the sample is the usual read-out of agar diffusion tests.

The subject of test [2] is Sporobolomyces salmonicolor. As to the kind of experiment: Antifungal activity against Sporidiobolus salmonicolor 549 H4 assessed as zone of inhibition at 50 ug/disc after 24 hrs by agar diffusion assay. The class given is functional. The settings on record: 549 H4, 24 h, read-out: IZ.
Another test relates to HUVEC. As to the kind of experiment: Antiproliferative activity against HUVEC. The settings on record: Homo sapiens. The class given is functional.
A further test concerns Escherichia coli. The experiment in a line: Antibacterial activity against Escherichia coli 458 B4 assessed as zone of inhibition at 50 ug/disc after 24 hrs by agar diffusion assay. The class given is functional. To be noted: 458 B4, 24 h, read-out: IZ.
The test system of another test is Candida albicans. The experiment in a line: Antifungal activity against Candida albicans H8 assessed as zone of inhibition at 50 ug/disc after 24 hrs by agar diffusion assay. The format is functional. To be noted: H8, 24 h, read-out: IZ.
Test [3] concerns Staphylococcus aureus. As to the kind of experiment: Antibacterial activity against methicillin-resistant Staphylococcus aureus 134/93 R9 assessed as zone of inhibition at 50 ug/disc after 24 hrs by agar diffusion assay. The class given is functional. The settings on record: 134/93 R9, 24 h, read-out: IZ.
The next test deals with Penicillium chrysogenum. The experiment in a line: Antifungal activity against Penicillium notatum JP36 P1 assessed as zone of inhibition at 50 ug/disc after 24 hrs by agar diffusion assay. The class given is functional. To be noted: JP36 P1, 24 h, read-out: IZ.
The test system of another test is HeLa. As to the kind of experiment: Cytotoxicity against human HeLa cells. The class given is functional.
The test system of a further test is Aspergillus niger. As to the kind of experiment: Antifungal activity against Aspergillus niger DSM 737 assessed as zone of inhibition at 50 ug/disc after 24 hrs by agar diffusion assay. The class given is functional. The settings on record: DSM 737, 24 h, read-out: IZ.
The test system of a further test is Aspergillus fumigatus. The experiment in a line: Antifungal activity against Aspergillus fumigatus ATCC 46645 assessed as zone of inhibition at 50 ug/disc after 24 hrs by agar diffusion assay. The class given is functional. The settings on record: ATCC 46645, 24 h, read-out: IZ.
The next test has as its system Mycolicibacterium vaccae. The experiment in a line: Antibacterial activity against Mycobacterium vaccae 10670 M4 assessed as zone of inhibition at 50 ug/disc after 24 hrs by agar diffusion assay. The format is functional. The settings on record: 10670 M4, 24 h, read-out: IZ.
Another test deals with K562. As to the kind of experiment: Antiproliferative activity against human K562 cells. The class given is functional.
For test [4], the system named is Pseudomonas aeruginosa. The experiment in a line: Antibacterial activity against Pseudomonas aeruginosa SG 137 B7 assessed as zone of inhibition at 50 ug/disc after 24 hrs by agar diffusion assay. The class given is functional. To be noted: SG 137 B7, 24 h, read-out: IZ.
In test [5] the test system is Pseudomonas aeruginosa. As to the kind of experiment: Antibacterial activity against Pseudomonas aeruginosa K 799/61 B9 assessed as zone of inhibition at 50 ug/disc after 24 hrs by agar diffusion assay. The class given is functional. To be noted: K 799/61 B9, 24 h, read-out: IZ.
The nature of test [6]: Cytotoxicity against human CXF HT29 cells by propidium iodide-based fluorescence assay. The format is functional, cell-based. The settings on record: HT-29.
A short description of test [7]: Cytotoxicity against human MAXF 401NL cells by propidium iodide-based fluorescence assay. The class given is functional, cell-based.
Test [8] can be described thus: Cytotoxicity against human OVXF 899L cells by propidium iodide-based fluorescence assay. The class given is functional, cell-based.
A short description of test [9]: Cytotoxicity against human MEXF 462NL cells by propidium iodide-based fluorescence assay. The format is functional, cell-based.
Test [10] is described as follows: Cytotoxicity against human GXF251L cells by propidium iodide-based fluorescence assay. To be noted: GXF 251L. The format is functional, cell-based.
The nature of test [11]: Cytotoxicity against human UXF 1138L cells by propidium iodide-based fluorescence assay. The class given is functional, cell-based.
Test [12] is described as follows: Cytotoxicity against human RXF 486L cells by propidium iodide-based fluorescence assay. The class given is functional, cell-based.
A short description of test [13]: Cytotoxicity against human PAXF 1657L cells by propidium iodide-based fluorescence assay. The format is functional, cell-based.
Test [14] in a line: Cytotoxicity against human PXF 1752L cells by propidium iodide-based fluorescence assay. The format is functional, cell-based.
Test [15] in a line: Cytotoxicity against human LXFA 629L cells by propidium iodide-based fluorescence assay. The class given is functional, cell-based.
A short description of test [16]: Cytotoxicity against human LXFL 529L cells by propidium iodide-based fluorescence assay. The format is functional, cell-based.
Test [17] is described as follows: Cytotoxicity against human PRXF 22Rv1 cells by propidium iodide-based fluorescence assay. The class given is functional, cell-based, CWR22R.

Each structure is given as a SMILES string. pIC50: −log10 of the molar value. Converted amounts (≈) assume the structure as drawn.

With `COC[C@H](/N=[N+](\[O-])CCCCCCC(C)=O)[C@H](C)O` [ELAIOMYCIN G], the zone of inhibition at 50 µg/disc in the test with Enterococcus faecalis turned out to be 0 mm; with Staphylococcus aureus [1], 0 mm; with Bacillus subtilis it was 0 mm; in the test on Aspergillus terreus it was 0 mm; in [2], 13 mm; in the test with Escherichia coli, 0 mm. Besides, the zone of inhibition at 50 µg/disc is 0 mm in the test with Candida albicans; 0 mm in the test on Staphylococcus aureus [3]; 0 mm in the test on Penicillium chrysogenum; 0 mm in the test on Aspergillus niger; 0 mm in the test on Aspergillus fumigatus; 11 mm with Mycolicibacterium vaccae. Further, the zone of inhibition at 50 µg/disc in the test with Pseudomonas aeruginosa [4] and in the test on Pseudomonas aeruginosa [5] was 0 mm each time. Further, the GI50 with HUVEC and in the test with K562 was above 50 µg/mL throughout. Further, the CC50 in the test with HeLa is above 50 µg/mL.
`COC[C@H](/N=[N+]([O-])/C=C/CCCCC(C)=O)[C@H](C)O` [ELAIOMYCIN D]: the zone of inhibition at 50 µg/disc (with Enterococcus faecalis; with Staphylococcus aureus [1]; with Bacillus subtilis; with Aspergillus terreus; in test [2]; in the test on Escherichia coli) was 0 mm throughout. Further, the zone of inhibition at 50 µg/disc in the test on Candida albicans, in the test with Staphylococcus aureus [3], with Penicillium chrysogenum, in the test with Aspergillus niger, with Aspergillus fumigatus and in the test on Mycolicibacterium vaccae was 0 mm each time. For the same molecule, the zone of inhibition at 50 µg/disc in the test on Pseudomonas aeruginosa [4] and in the test with Pseudomonas aeruginosa [5] was 0 mm throughout. In addition, the 50% growth inhibitory concentration (GI50) in the test with HUVEC and with K562 was above 50 µg/mL each time. Also, in the test on HeLa, the 50% cytotoxic concentration (CC50) was above 50 µg/mL.
Regarding `CCCCCCCC/[N+]([O-])=N/[C@@H](COC)C(N)=O` [ELAIOMYCIN H], the negative logarithm of the IC50 (pIC50) in [6] was 5.94; in test [7], 5.43; in test [8], 5.01; in [9], 5.40; in [10] it was 5.33; in test [11], 5.05. In addition, the pIC50 is 5.02 in test [12]; 5.27 in [13]; 5.22 in test [14]; 5.92 in [15]; 5.07 in [16]; 5.10 in test [17]. Further, the zone of inhibition at 50 µg/disc in the test on Enterococcus faecalis was determined as 0 mm; in the test on Staphylococcus aureus [1], 0 mm; in the test with Bacillus subtilis, 0 mm; in the test with Aspergillus terreus, 15 mm; in [2], 14 mm; in the test with Escherichia coli it was 0 mm. Also, the zone of inhibition at 50 µg/disc came to 0 mm with Candida albicans; 0 mm with Staphylococcus aureus [3]; 0 mm with Penicillium chrysogenum; 0 mm in the test on Aspergillus niger; 13 mm in the test with Aspergillus fumigatus; 12 mm in the test with Mycolicibacterium vaccae. Besides, the zone of inhibition at 50 µg/disc in the test on Pseudomonas aeruginosa [4] and in the test on Pseudomonas aeruginosa [5] was 0 mm each time. For the same molecule, the figures for the GI50 with HUVEC and in the test with K562 were 38.2 µg/mL (≈ 147 µM) and 37.5 µg/mL (≈ 145 µM), respectively. Further, the cytotoxic concentration (CC50) with HeLa worked out at 40.5 µg/mL (≈ 156 µM).
On to `CCCCCC/C=C\[N+]([O-])=N\[C@@H](COC)[C@H](C)O` [ELAIOMYCIN], for which the negative logarithm of the IC50 (pIC50) in test [6] is 5.01; in test [7], 4.97; in test [8], 4.93; in [9] it was 4.98; in test [10], 5.10; in test [11], 4.83. Besides, the negative logarithm of the IC50 (pIC50) is below 4.52 in test [12]; 4.69 in [13]; 4.99 in test [14]; 5.03 in [15]; 4.83 in test [16]; 5.04 in [17]. The zone of inhibition at 50 µg/disc in the test with Enterococcus faecalis was determined as 0 mm; in the test with Staphylococcus aureus [1] it was 0 mm; with Bacillus subtilis it was 10 mm; in the test with Aspergillus terreus, 0 mm; in [2] it was 12 mm; in the test with Escherichia coli it was 0 mm. Also, the zone of inhibition at 50 µg/disc with Candida albicans came out at 0 mm; with Staphylococcus aureus [3] it was 0 mm; in the test on Penicillium chrysogenum, 0 mm; in the test on Aspergillus niger it was 0 mm; with Aspergillus fumigatus, 0 mm; with Mycolicibacterium vaccae, 14 mm. For the same molecule, the zone of inhibition at 50 µg/disc in the test with Pseudomonas aeruginosa [4] and in the test on Pseudomonas aeruginosa [5] was 0 mm each time. Also, the results for the concentration for 50% growth inhibition (GI50) in the test with HUVEC and with K562 were 30.4 µg/mL (≈ 118 µM) and above 50 µg/mL, respectively. The midpoint of cytotoxicity with HeLa, the CC50, lay at 35.1 µg/mL (≈ 136 µM).
Regarding `CCCCCCCC/[N+]([O-])=N/[C@@H](COC)[C@H](C)O` [ELAIOMYCIN F], the zone of inhibition at 50 µg/disc (in the test with Enterococcus faecalis; in the test with Staphylococcus aureus [1]; in the test on Bacillus subtilis; in the test on Aspergillus terreus; in [2]; with Escherichia coli) was 0 mm throughout. For the same molecule, the zone of inhibition at 50 µg/disc with Candida albicans, in the test on Staphylococcus aureus [3], with Penicillium chrysogenum, with Aspergillus niger, in the test with Aspergillus fumigatus and with Mycolicibacterium vaccae was 0 mm in each case. Besides, the zone of inhibition at 50 µg/disc in the test with Pseudomonas aeruginosa [4] and in the test with Pseudomonas aeruginosa [5] was 0 mm each time. Moreover, the concentration for 50% growth inhibition (GI50) in the test on HUVEC and in the test on K562 was above 50 µg/mL each time. Further, it took 30.5 µg/mL (≈ 117 µM) to reach half-maximal cytotoxicity with HeLa (CC50).
For the molecule `CCCCCC(O)/C=C/[N+]([O-])=N/[C@@H](COC)[C@H](C)O` (stereo partly specified) [ELAIOMYCIN E], the zone of inhibition at 50 µg/disc in the test with Enterococcus faecalis was found to be 10 mm; with Staphylococcus aureus [1], 0 mm; in the test with Bacillus subtilis it was 10 mm; with Aspergillus terreus, 0 mm; in test [2], 0 mm; in the test with Escherichia coli, 0 mm. The zone of inhibition at 50 µg/disc with Candida albicans, in the test with Staphylococcus aureus [3], with Penicillium chrysogenum, in the test with Aspergillus niger, in the test with Aspergillus fumigatus and in the test with Mycolicibacterium vaccae was 0 mm in each case. Besides, the zone of inhibition at 50 µg/disc with Pseudomonas aeruginosa [4] amounted to 10 mm; in the test with Pseudomonas aeruginosa [5], 0 mm. The concentration for 50% growth inhibition (GI50) was 31.2 µg/mL (≈ 114 µM) in the test on HUVEC and 30.3 µg/mL (≈ 110 µM) with K562. In the test with HeLa, the CC50 is above 50 µg/mL.

A word on the GI50: it is the concentration that inhibits growth by half. The low end stands for greater sensitivity of the cells, the high end for lower sensitivity of the cells. As usually defined, the CC50 is the concentration at which the toxic effect on the cells reaches its halfway point. A low value points to greater toxicity to the cells. In general, pIC50 refers to the negative decadic logarithm of the IC50, by convention in mol/L. A higher pIC50 goes with a low IC50.

The values above are taken from ChEMBL document CHEMBL2150937, “Elaiomycins D-F, antimicrobial and cytotoxic azoxides from Streptomyces sp. strain HKI0708” (J Nat Prod, 2012).
